Results as given in patent US10287267B2, “Isoquinolin-3-yl carboxamides and preparation and use thereof” (Samumed, LLC, priority 2016, dated 2019).
Like-named read-outs stand apart in the source and are kept apart here.

Tests used:
IL-6 [1] = assay: IL-6 inhibition in LPS-stimulated human peripheral blood mononuclear cells (HTRF); format: cell-based; conditions: Table 9, huPBMCs, LPS 50 ng/mL, 22 hours, dose-response starting from 10 μM;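 note: IL-6 detected by HTRF with an XL665- and Cryptate-labelled anti-IL-6 antibody pair, samples run in duplicate, EC50 obtained from a four-parameter Levenberg-Marquardt curve fit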
Description: After 22 hour incubation, a mixture of anti-IL6 XL665 and anti-IL-6 Cryptate diluted in reconstitution buffer (Catalog #62IL6PEC, Cisbio Inc., Bedford, Mass.) was added to each well. […] All samples were processed in duplicate. […] EC50 was determined using software generated by Dotmatics Limited (Windhill Bishops Stortford Herts, UK) using the Levenberg-Marquardt 4 parameter fitting procedure with finite different gradients.

[2] = system: Tau phosphorylation at Ser396 (pSer396); assay: Tau phosphorylation assay (pSer396 ELISA / western blot) in SH-SY5Y cells; format: cell-based, human; conditions: read-out: pSer396 Tau EC50;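 note: EC50 for reduction of Tau pSer396 in lysed cells, measured by colorimetric ELISA or chemiluminescent western blot, both using the same pSer396 antibody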
Description: Two days before treatment, cells were seeded onto 96 well plates at 5×10^4 cells/well.
Wells were visually checked for cell death or change in morphology and supernatants were tested for cytotoxicity by measurement of lactate dehydrogenase release (LDH, CytoToxOne kit, Promega) if necessary.
Cells were lysed with RIPA buffer complemented with phosphatase and protease inhibitors then lysates were spun down at 12,000 g for 10 min to remove any cellular debris. Lysates are then either directly tested for pSer396 by ELISA (Life Technology, Kit KHB7031) or loaded on NuPage Bis-Tris gels for western blot analysis. Colorimetric detection of ELISA signal is performed by Cytation3 plate reader (Biotek) and the chemiluminescence signal for HRP-linked antibodies used in western blotting is detected using a Carestream Image Station. The same pSer396 antibody is used for detection of pTau in both assays.

[3] = target: recombinant DYRK1A kinase (Homo sapiens (Human), UniProt Q13627); assay: DYRK1A kinase assay (Ser/Thr 18 peptide Z-lyte FRET); format: biochemical; conditions: 30 μM ATP, 1 h room temperature;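 note: Read-out is the coumarin to fluorescein emission ratio, referenced to unphosphorylated (0%) and phosphorylated (100%) Ser/Thr 18 peptide controls, values from dose-response curves by non-linear regression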
[4] = system: Wnt pathway (Sp5-Luc reporter, TCF/LEF binding sites) in SW480 colon carcinoma cells; assay: Screening assay for Wnt activity: Sp5-Luc reporter gene assay; format: cell-based, human; conditions: Sp5-Luc reporter, SW480 cells, 36 to 48 hours;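 note: firefly luciferase luminescence read in stably transduced SW480 cells carrying the Sp5 promoter reporter with eight TCF/LEF sites, compounds given in 0.1% DMSO final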
Description: The screening assay for Wnt activity is described as follows.
Following incubation, 15 μl of BriteLite Plus luminescence reagent (Perkin Elmer) was added to each well of the 384-well assay plates. The plates were placed on an orbital shaker for 2 min and then luminescence was quantified using the Envision (Perkin Elmer) plate reader.

IL-6 [5] = assay: Secreted cytokines in lipopolysaccharide-stimulated BV-2 mouse microglial cells: IL-6; format: cell-based; conditions: BV-2 cells, compounds overnight, LPS 250 ng/mL 5 h
Description: (§1) Representative compounds were screened using the cell-based assay procedure for secreted cytokines in a Lipopolysaccharide-stimulated mouse glial cell line described below.
(§2) BV-2 cells (mouse microglial cells) were cultured in 1:1 DMEM medium supplemented with 10% FBS, and 1% penicillin/streptomycin.
(§3) BV-2 cells are plated at 35,000 cells/well in a volume of 100 ul for at least 4 hours before compounds are added. DMSO-resuspended compounds were first dispensed in a 96 well plate and serial diluted from 10 μM to 4.6 nM final concentration in medium. Compounds were added to cells overnight. Two hundred fifty ng per milliliter of lipopolysaccharide (Escherichia coli O55:B5, SIGMA) was added for 5 h. Supernatant is removed and saved for further cytokine detection. The original plates with seeded cells were tested for cytotoxicity by measure of adenosine triphosphate (ATP) release by adding CellTiter-Glo® diluted 1:4 in distilled water (G7573, Promega) and transferring lysed cells to a completely black 96-well plate to be read with the Cytation3. Supernatant was then diluted 1:2 with a diluent from V-PLEX cytokine Kit and directly tested for the secreted cytokines TNFα, IL-6 and KC-GRO using electrochemiluminescence (Meso Scale Discovery). The standard curve for each cytokine was used to convert the electrochemiluminescent signal into pg of protein per mL.

recombinant GSK3β kinase = recombinant GSK3β kinase (Homo sapiens (Human), UniProt P49841); assay: GSK3β kinase assay (Ser/Thr 09 peptide Z-lyte FRET); format: biochemical; conditions: 46 μM ATP, 1 h room temperature;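 note: kinase activity read as coumarin to fluorescein emission ratio, 11-point threefold dilutions from 10 µM to 0.0003 µM in duplicate, unphosphorylated and phosphorylated peptide as 0% and 100% controls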
[6] = system: SW480 colon carcinoma cells; assay: Cell viability assay (CellTiter-Glo); format: cell-based, human; conditions: SW480 cells, CellTiter-Glo, four days incubation
[7] = system: α-smooth muscle actin (αSMA) positive LL29 cells; assay: Inhibition of fibrotic process: αSMA in TGF-β1 treated primary human fibroblasts from IPF patients; format: cell-based; conditions: Homo sapiens, Fibroblast, 96 h; Table 8; LL29 fibroblasts from IPF patients, TGF-β1 20 ng/mL, 4 days; dose-response 10 μM to 0.94 nM;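 note: controls were TGF-β1 stimulated wells with DMSO vehicle (positive) and cells given DMSO alone (negative), cultured in F12 medium with 1% fetal bovine serum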
TNFα = assay: Secreted cytokines in lipopolysaccharide-stimulated BV-2 mouse microglial cells: TNFα; format: cell-based; conditions: BV-2 cells, compounds overnight, LPS 250 ng/mL 5 h
Description: as §1, §2, §3

[8] = system: secreted β-amyloid 40 (Aβ40) peptide; assay: Secreted β-amyloid 40 (Aβ40) peptide in APP overexpressing SH-SY5Y-APP cells; format: cell-based; conditions: Homo sapiens, overnight (16-18 hours)
Description: Representative compounds were screened using the cell-based assay procedure for secreted β-amyloid 40 (Aβ40) peptide in an APP overexpressing cell line described below.
SH-SY5Y cells were infected with lentivirus to overexpress amyloid (A4) beta precursor protein (APP), hereafter referred to as the SH-SY5Y-APP cells.
SH-SY5Y cells were seeded onto 6-well plates at
The cell assay procedure start 18 h prior to treatment, as SH-SY5Y-APP cells were seeded onto 96-well plates at
At this time, designated wells were seeded with SH-SY5Y cells that were seeded and treated with puromycin at
Cells were exposed overnight (16-18 hours) in a 37° C. incubator before supernatant was harvested. […] The original plates with seeded cells were tested for cytotoxicity by measure of adenosine triphosphate (ATP) release by adding CellTiter-Glo® diluted 1:4 in distilled water (G7573, Promega) and transferring lysed cells to a completely black 96-well plate to be read with the Cytation3. Plates containing supernatant were spun down at 1200 g for 10 minutes to remove any cellular debris. Supernatant was then diluted 1:2 with a diluent from V-PLEX Aβ40 Peptide (6E10) Kit and directly tested for secreted Aβ40 peptide (K150SKE, Meso Scale Discovery).

[9] = Homo sapiens, SH-SY5Y cells, overnight (16-18 h) exposure

recombinant GSK3β kinase, sequence (P49841 whole entry): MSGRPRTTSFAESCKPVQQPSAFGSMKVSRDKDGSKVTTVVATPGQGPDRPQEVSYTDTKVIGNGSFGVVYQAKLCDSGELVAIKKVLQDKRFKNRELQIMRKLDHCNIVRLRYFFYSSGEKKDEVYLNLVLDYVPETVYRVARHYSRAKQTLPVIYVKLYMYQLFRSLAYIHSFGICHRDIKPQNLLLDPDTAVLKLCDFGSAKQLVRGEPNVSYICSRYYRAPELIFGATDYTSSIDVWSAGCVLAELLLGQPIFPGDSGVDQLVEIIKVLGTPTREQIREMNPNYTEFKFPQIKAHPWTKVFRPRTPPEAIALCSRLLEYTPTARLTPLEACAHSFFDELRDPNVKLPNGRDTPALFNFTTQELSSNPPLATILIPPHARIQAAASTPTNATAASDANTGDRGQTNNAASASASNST

Row | Compound | EC50 (IL-6 [1]) | EC50 ([2]; SH-SY5Y cells, overnight (16-18 h) exposure) | EC50 [3] | EC50 [4] | EC50 (IL-6 [5]) | EC50 (recombinant GSK3β kinase) | EC50 [6] | EC50 (IL-6 [1]; Homo sapiens, PBMC) | EC50 [7] | EC50 [2, 9] | EC50 (TNFα) | EC50 ([4]; Homo sapiens) | EC50 (IL-6 [5]; Mus musculus) | EC50 ([6]; Homo sapiens, 96 h) | IC50 [8] | EC50 ([2]; Homo sapiens, SH-SY5Y)
1 | 1-(2-Hydroxy-2-methylpropyl)-N-(6-(1-methyl-1H-1,2,3-triazol-4-yl) isoquinolin-3-yl)piperidine-4-carboxamide [Compound 1070] | 6470 nM | 91 nM | 7.6 nM | 738 nM | 14 nM | 16 nM | 8390 nM | – | – | – | – | – | – | – | – | –
2 | CN1CCC(C(=O)Nc2cc3cc(-c4cnn(C)c4)ccc3cn2)CC1 [Compound 73, 1-Methyl-N-(6-(1-methyl-1H-pyrazol-4-yl)isoquinolin-3-yl)piperidine-4-carboxamide] | – | – | 1.7 nM | – | – | 49 nM | – | 963 nM | 169 nM | 199 nM | 23 nM | 485 nM | 80 nM | 769 nM | – | –
3 | Cn1cc(-c2ccc3cnc(NC(=O)C4CCN(CCF)CC4)cc3c2)cn1 [Compound 81, 1-(2-Fluoroethyl)-N-(6-(1-methyl-1H-pyrazol-4-yl)isoquinolin-3-yl) piperidine-4-carboxamide] | – | – | 1.5 nM | – | – | 30 nM | – | 395 nM | 104 nM | 452 nM | > 10000 nM | 735 nM | 30 nM | 949 nM | 2300 nM | –
4 | Cn1cc(-c2ccc3cnc(NC(=O)C4CCN(CC(C)(F)F)CC4)cc3c2)cn1 [Compound 83, 1-(2,2-Difluoropropyl)-N-(6-(1-methyl-1H-pyrazol-4-yl)isoquinolin-3-yl) piperidine-4-carboxamide] | – | – | 1.2 nM | – | – | 34 nM | – | 2150 nM | 67 nM | 432 nM | – | 2900 nM | 6 nM | 6340 nM | > 10000 nM | –
5 | Cn1cc(-c2ccc3cnc(NC(=O)C4CCN(CC(F)F)CC4)cc3c2)cn1 [Compound 84, 1-(2,2-Difluoroethyl)-N-(6-(1-methyl-1H-pyrazol-4-yl)isoquinolin-3-yl) piperidine-4-carboxamide] | – | – | 1.3 nM | – | – | 20 nM | – | 2460 nM | 148 nM | 454 nM | – | 1900 nM | – | 1950 nM | 4400 nM | –
6 | Cn1cc(-c2ccc3cnc(NC(=O)C4CCN(CC(C)(C)F)CC4)cc3c2)cn1 [Compound 85, 1-(2-Fluoro-2-methylpropyl)-N-(6-(1-methyl-1H-pyrazol-4-yl)isoquinolin-3-yl)piperidine-4-carboxamide] | – | – | 1.4 nM | – | – | 29 nM | – | 1150 nM | 97 nM | 392 nM | – | 1200 nM | – | 1640 nM | 1300 nM | –
7 | Cn1cc(-c2ccc3cnc(NC(=O)CN4CCCCC4)cc3c2)cn1 [Compound 115, N-(6-(1-Methyl-1H-pyrazol-4-yl)isoquinolin-3-yl)-2-(piperidin-1-yl) acetamide] | – | – | 3.4 nM | – | – | 30 nM | – | 1910 nM | 605 nM | 311 nM | – | 2400 nM | – | 3500 nM | 956 nM | –
8 | Cn1nncc1-c1ccc2cnc(NC(=O)C3CCN(CCC(F)(F)F)CC3)cc2c1 [Compound 248, N-(6-(1-Methyl-1H-1,2,3-triazol-5-yl)isoquinolin-3-yl)-1-(3,3,3-trifluoropropyl)piperidine-4-carboxamide] | – | – | 37.4 nM | – | – | 266 nM | – | 9730 nM | 7920 nM | 905 nM | – | > 10000 nM | – | > 10000 nM | > 10000 nM | –
9 | Cn1cncc1-c1ccc2cnc(NC(=O)C3CCN(CCC(F)(F)F)CC3)cc2c1 [Compound 262, N-(6-(1-Methyl-1H-imidazol-5-yl)isoquinolin-3-yl)-1-(3,3,3-trifluoropropyl) piperidine-4-carboxamide] | – | – | 1.5 nM | – | – | 24 nM | – | 1090 nM | 43 nM | 174 nM | 3200 nM | 1700 nM | 1500 nM | 1390 nM | 2200 nM | –
10 | Cn1cncc1-c1ccc2cnc(NC(=O)C3CCC(F)(F)CC3)cc2c1 [Compound 263, 4,4-Difluoro-N-(6-(1-methyl-1H-imidazol-5-yl)isoquinolin-3-yl) cyclohexanecarboxamide] | – | – | 1.3 nM | – | – | 18 nM | – | 451 nM | 134 nM | 119 nM | – | 1300 nM | – | 1290 nM | 5300 nM | –
11 | Cn1cncc1-c1ccc2cnc(NC(=O)C3C(C)(C)C3(C)C)cc2c1 [Compound 269, 2,2,3,3-Tetramethyl-N-[6-(3-methylimidazol-4-yl)-3-isoquinolyl]cyclopropanecarboxamide] | – | – | 5 nM | – | – | 1020 nM | – | 3390 nM | 396 nM | – | – | 3620 nM | – | 2330 nM | > 10000 nM | 4300 nM
12 | Cn1cc(-c2ccc3cnc(NC(=O)C4CCN(CCC(F)(F)F)CC4)cc3c2)nn1 [Compound 271, N-(6-(1-methyl-1H-1,2,3-triazol-4-yl)isoquinolin-3-yl)-1-(3,3,3-trifluoropropyl)piperidine-4-carboxamide] | – | – | 2.1 nM | – | – | 3 nM | – | 3080 nM | 64 nM | 124 nM | – | 1720 nM | – | 2960 nM | 4600 nM | –
13 | Cn1cnnc1-c1ccc2cnc(NC(=O)C3CCN(CCC(F)(F)F)CC3)cc2c1 [Compound 278, N-(6-(4-Methyl-4H-1,2,4-triazol-3-yl)isoquinolin-3-yl)-1-(3,3,3-trifluoropropyl)piperidine-4-carboxamide] | – | – | 3.2 nM | – | – | 7 nM | – | 3990 nM | 211 nM | 76 nM | > 10000 nM | 413 nM | 217 nM | 1230 nM | – | –
14 | CN1CC2(CC(C(=O)Nc3cc4cc(-c5cnn(C)c5)ccc4cn3)C2)C1 [Compound 324, 2-Methyl-N-(6-(1-methyl-1H-pyrazol-4-yl)isoquinolin-3-yl)-2-azaspiro[3.3] heptane-6-carboxamide] | – | – | 2.1 nM | – | – | 30 nM | – | 321 nM | 68 nM | 180 nM | 33 nM | 145 nM | 20 nM | 266 nM | – | –
15 | Cn1cc(-c2ccc3cnc(NC(=O)CN4CCOCC4)cc3c2)cn1 [Compound 338, N-(6-(1-Methyl-1H-pyrazol-4-yl)isoquinolin-3-yl)-2-morpholinoacetamide] | – | – | 6.2 nM | – | – | 67 nM | – | 4460 nM | 643 nM | 1700 nM | 724 nM | 7370 nM | 144 nM | 9330 nM | – | –
16 | CC(C)CN1CCC(C(=O)Nc2cc3cc(-c4cn(C)nn4)ccc3cn2)CC1 [Compound 468] | – | – | 4.9 nM | – | – | 7 nM | – | 5780 nM | – | 39 nM | 2100 nM | 363 nM | 23 nM | 2510 nM | – | –
